Reference: patent US9801961B2, “2-phenylimidazo[1,2-a]pyrimidines as imaging agents” (Hoffmann-La Roche Inc., priority 2013, dated 2017)
Blank lines part the entries; values can stand above or below the compound they belong to.

Test system: native tau aggregates
Assay: TAU radioligand in vitro displacement assay ([3H]T808 autoradiography on human AD brain sections)
Assay type: binding
Details: radioligand [3H]T808 10 nM, 50 mM Tris pH 7.4, room temperature, 30 min; for % displacement of [3H]T808 (10 nM) at 10 nM: compound 10 nM
Experimental: TAU Radioligand-In-Vitro Displacement Assay
This in vitro binding assay assesses the affinity of compounds for native tau aggregates. The compounds are co-incubated with the well-established tau specific radioligand [^3H]T808 and the compound's displacement potency of [^3H]T808 binding is determined by in vitro autoradiography using human Alzheimer's disease (AD) brain sections (FIG. 1).
AD human brains are purchased from Banner Sun Health Research Institute (Sun City, Ariz., USA). Pathological diagnosis of AD is made according to standard NIA-Reagan Institute criteria based on neuropathological data. The radioligand [^3H]T808 was synthesized in-house ([^3H]-2-[4-(2-Fluoro-ethyl)-piperidin-1-yl]-benzo[4,5]imidazo[1,2-a]pyrimidine, radiochemical purity 99.0%). As a reference cold T808 is used (2-[4-(2-Fluoro-ethyl)-piperidin-1-yl]-benzo[4,5]imidazo[1,2-a]pyrimidine). For the autoradiography FujiFilm Imaging Plates (BAS-IP TR 2025) are exposed to the sections and read with a FujiFilm IP reader (BAS-5000).
Ten μm thick human AD brain sections are generated with a cryostat (Leica CM3050) at −17° C. chamber temperature and −15° C. object temperature. Sections are transferred to Histobond+microscope slides (Marienfeld Laboratory Glasware). After drying for 3 hours at room temperature the sections are stored at −20° C. The sections are incubated with the radioligand (10 nM) and the respective cold compound (at various concentrations) in 50 mM Tris buffer, pH 7.4 at room temperature for 30 min. After washing 3×10 min at 4° C. in 50 mM Tris buffer, pH 7.4 and 3 quick dips in H2O dist. at 4° C. the sections are dried at 4° C. for 3 h. The sections are placed in a FujiFilm Cassette (BAS 2025), exposed with an Imaging Plate for five days and afterwards scanned with a resolution of […].
The signal intensity (Dens—PSL/mm2) in the region of interest (ROI) of the autoradiogram is quantified with the software MCID analysis (version 7.0, Imaging Research Inc.). The specific binding (SB) of [^3H]T808 binding in absence or in presence of a compound is calculated by subtracting the non-specific binding signal in the white matter, thus yielding SB[3H]T808 only and SBcompund. The % displacement by the various compounds is calculated as following: % displacement=100−(SBcompund/SB[3H]T808 only)*100.
In each experiment cold T808 is used as a positive internal control. Co-incubation of equimolar amounts of hot and cold T808 is expected to reduce specific binding by approximately 50%.

Compound: FCCC1CCN(c2ccn3cc(-c4ccccc4)nc3n2)CC1 [Example 54, 7-[4-(2-Fluoroethyl)piperidin-1-yl]-2-phenylimidazo[1,2-a]pyrimidine]
% displacement of [3H]T808 (10 nM) at 10 nM: 14%

Compound: COc1cccc(-c2cn3ccc(N4CCC(CCF)CC4)nc3n2)c1 [Example 55, 7-[4-(2-Fluoroethyl)piperidin-1-yl]-2-(3-methoxyphenyl)imidazo[1,2-a]pyrimidine]
% displacement of [3H]T808 (10 nM) at 10 nM: 10%

Compound: FCCC1CCN(c2ccn3cc(-c4ccc5c(c4)OCO5)nc3n2)CC1 [Example 57, 2-(1,3-Benzodioxol-5-yl)-7-[4-(2-fluoroethyl)piperidin-1-yl]imidazo[1,2-a]pyrimidine]
% displacement of [3H]T808 (10 nM) at 10 nM: 9%

Compound: FCCC1CCN(c2ccn3cc(-c4ccc5c(c4)OCCO5)nc3n2)CC1 [Example 58, 2-(2,3-Dihydro-1,4-benzodioxin-6-yl)-7-[4-(2-fluoroethyl)piperidin-1-yl]imidazo[1,2-a]pyrimidine]
% displacement of [3H]T808 (10 nM) at 10 nM: 18%

Compound: Cc1cccc(-c2cn3ccc(N4CCC(CCF)CC4)nc3n2)c1 [Example 59, 7-[4-(2-Fluoroethyl)piperidin-1-yl]-2-(3-methylphenyl)imidazo[1,2-a]pyrimidine]
% displacement of [3H]T808 (10 nM) at 10 nM: 10%

Compound: Cc1ccc(-c2cn3ccc(N4CCC(CCF)CC4)nc3n2)cc1 [Example 60, 7-[4-(2-Fluoroethyl)piperidin-1-yl]-2-(4-methylphenyl)imidazo[1,2-a]pyrimidine]
% displacement of [3H]T808 (10 nM) at 10 nM: 15%

Compound: FCCC1CCN(c2ccn3cc(-c4ccc(N5CCOCC5)cc4)nc3n2)CC1 [Example 61, 4-[4-[7-[4-(2-Fluoroethyl)piperidin-1-yl]imidazo[1,2-a]pyrimidin-2-yl]phenyl]morpholine]
% displacement of [3H]T808 (10 nM) at 10 nM: 10%

Compound: CNc1ccn2cc(-c3cccc(C)c3)nc2n1 [Example 62, N-Methyl-2-(3-methylphenyl)imidazo[1,2-a]pyrimidin-7-amine]
% displacement of [3H]T808 (10 nM) at 10 nM: 48%

Compound: FC1CCN(c2ccn3cc(-c4ccsc4)nc3n2)CC1 [Example 63, 7-(4-Fluoropiperidin-1-yl)-2-thiophen-3-ylimidazo[1,2-a]pyrimidine]
% displacement of [3H]T808 (10 nM) at 1 uM (compound 1 uM): 70%

Compound: Cc1cccc(-c2cn3ccc(N(C)CCOCCF)nc3n2)c1 [Example 68, N-[2-(2-Fluoroethoxy)ethyl]-N-methyl-2-(3-methylphenyl)imidazo[1,2-a]pyrimidin-7-amine]
% displacement of [3H]T808 (10 nM) at 10 nM: 14%

Compound: FC1CN(c2ccn3cc(-c4ccccc4)nc3n2)C1 [Example 71, 7-(3-Fluoroazetidin-1-yl)-2-phenylimidazo[1,2-a]pyrimidine]
% displacement of [3H]T808 (10 nM) at 10 nM: 18%

Compound: Cc1cccc(-c2cn3ccc(N4CC(F)C4)nc3n2)c1 [Example 72, 7-(3-Fluoroazetidin-1-yl)-2-(3-methylphenyl)imidazo[1,2-a]pyrimidine]
% displacement of [3H]T808 (10 nM) at 10 nM: 18%

Compound: FC1CCN(c2ccn3cc(-c4cc5ccccc5o4)nc3n2)CC1 [Example 73, 2-(1-Benzofuran-2-yl)-7-(4-fluoropiperidin-1-yl)imidazo[1,2-a]pyrimidine]
% displacement of [3H]T808 (10 nM) at 10 nM: 19%

Compound: CN(C)c1ccc(-c2cn3ccc(N4CCOCC4)nc3n2)cc1 [Example 74, N,N-Dimethyl-4-(7-morpholin-4-ylimidazo[1,2-a]pyrimidin-2-yl)aniline]
% displacement of [3H]T808 (10 nM) at 10 nM: 16%

Compound: FC1CCN(c2ccn3cc(-c4cc5ccccc5s4)nc3n2)CC1 [Example 75, 2-(1-Benzothiophen-2-yl)-7-(4-fluoropiperidin-1-yl)imidazo[1,2-a]pyrimidine]
% displacement of [3H]T808 (10 nM) at 10 nM: 18%

Compound: FC1CCN(c2ccn3cc(-c4nc5ccccc5s4)nc3n2)CC1 [Example 79, 2-[7-(4-Fluoropiperidin-1-yl)imidazo[1,2-a]pyrimidin-2-yl]-1,3-benzothiazole]
% displacement of [3H]T808 (10 nM) at 10 nM: 12%

Compound: Oc1ccc(-c2cn3ccc(N4CCC4)nc3n2)cc1 [Example 80, 4-[7-(Azetidin-1-yl)imidazo[1,2-a]pyrimidin-2-yl]phenol]
% displacement of [3H]T808 (10 nM) at 10 nM: 25%

Compound: CNc1ccn2cc(-c3ccc4c(c3)OCO4)nc2n1 [Example 84, 2-(1,3-Benzodioxol-5-yl)-N-methylimidazo[1,2-a]pyrimidin-7-amine]
% displacement of [3H]T808 (10 nM) at 10 nM: 28%

Compound: CN(C)c1ccn2cc(-c3ccsc3)nc2n1 [Example 85, N,N-Dimethyl-2-thiophen-3-ylimidazo[1,2-a]pyrimidin-7-amine]
% displacement of [3H]T808 (10 nM) at 10 nM: 35%

Compound: CN(CCF)c1ccn2cc(-c3ccc4c(c3)OCO4)nc2n1 [Example 87, 2-(1,3-Benzodioxol-5-yl)-N-(2-fluoroethyl)-N-methylimidazo[1,2-a]pyrimidin-7-amine]
% displacement of [3H]T808 (10 nM) at 10 nM: 15%

More lines, now with the values ahead:

% displacement of [3H]T808 (10 nM) at 10 nM: 9%
Compound: COc1ccc(-c2cn3ccc(N4CCC(CCF)CC4)nc3n2)cc1 [Example 56, 7-[4-(2-Fluoroethyl)piperidin-1-yl]-2-(4-methoxyphenyl)imidazo[1,2-a]pyrimidine]

% displacement of [3H]T808 (10 nM) at 10 nM: 15%
Compound: COc1ccc(-c2cn3ccc(N(C)CCOCCF)nc3n2)cc1 [Example 64, N-[2-(2-Fluoroethoxy)ethyl]-2-(4-methoxyphenyl)-N-methylimidazo[1,2-a]pyrimidin-7-amine]

% displacement of [3H]T808 (10 nM) at 10 nM: 11%
Compound: COc1ccc(-c2cn3ccc(N4CC5(CCC5)C4)nc3n2)cc1 [Example 65, 7-(2-Azaspiro[3.3]heptan-2-yl)-2-(4-methoxyphenyl)imidazo[1,2-a]pyrimidine]

% displacement of [3H]T808 (10 nM) at 10 nM: 34%
Compound: CCN(C)c1ccn2cc(-c3ccc(OC)cc3)nc2n1 [Example 66, N-Ethyl-2-(4-methoxyphenyl)-N-methylimidazo[1,2-a]pyrimidin-7-amine]

% displacement of [3H]T808 (10 nM) at 10 nM: 19%
Compound: CCN(CC)c1ccn2cc(-c3ccc(OC)cc3)nc2n1 [Example 67, N,N-Diethyl-2-(4-methoxyphenyl)imidazo[1,2-a]pyrimidin-7-amine]

% displacement of [3H]T808 (10 nM) at 10 nM: 40%
Compound: COc1ccc(-c2cn3ccc(N4CCC4)nc3n2)cc1 [Example 69, 7-(Azetidin-1-yl)-2-(4-methoxyphenyl)imidazo[1,2-a]pyrimidine]

% displacement of [3H]T808 (10 nM) at 10 nM: 25%
Compound: COc1ccc(-c2cn3ccc(N4CC(F)C4)nc3n2)cc1 [Example 70, 7-(3-Fluoroazetidin-1-yl)-2-(4-methoxyphenyl)imidazo[1,2-a]pyrimidine]

% displacement of [3H]T808 (10 nM) at 10 nM: 43%
Compound: COc1ccc(-c2cn3ccc(NC4CC4)nc3n2)cc1 [Example 76, N-Cyclopropyl-2-(4-methoxyphenyl)imidazo[1,2-a]pyrimidin-7-amine]

% displacement of [3H]T808 (10 nM) at 10 nM: 15%
Compound: COc1ccc(-c2cn3ccc(NC(C)C)nc3n2)cc1 [Example 77, N-Isopropyl-2-(4-methoxy-phenyl)-imidazo[1,2-a]pyrimidin-7-amine]

% displacement of [3H]T808 (10 nM) at 10 nM: 8%
Compound: COc1ccc(-c2cn3ccc(NCC(F)(F)F)nc3n2)cc1 [Example 78, 2-(4-Methoxyphenyl)-N-(2,2,2-trifluoroethyl)imidazo[1,2-a]pyrimidin-7-amine]

% displacement of [3H]T808 (10 nM) at 10 nM: 16%
Compound: COc1ccc(-c2cn3ccc(N4CC(OC)C4)nc3n2)cc1 [Example 81, 7-(3-Methoxyazetidin-1-yl)-2-(4-methoxyphenyl)imidazo[1,2-a]pyrimidine]

% displacement of [3H]T808 (10 nM) at 10 nM: 38%
Compound: CNc1ccn2cc(-c3ccc(C)cc3)nc2n1 [Example 82, N-Methyl-2-(4-methylphenyl)imidazo[1,2-a]pyrimidin-7-amine]

% displacement of [3H]T808 (10 nM) at 10 nM: 41%
Compound: CNc1ccn2cc(-c3ccc(OC)cc3)nc2n1 [Example 83, 2-(4-Methoxyphenyl)-N-methylimidazo[1,2-a]pyrimidin-7-amine]

% displacement of [3H]T808 (10 nM) at 10 nM: 16%
Compound: Cc1ccc(-c2cn3ccc(N(C)CCF)nc3n2)cc1 [Example 86, N-(2-Fluoroethyl)-N-methyl-2-(4-methylphenyl)imidazo[1,2-a]pyrimidin-7-amine]

% displacement of [3H]T808 (10 nM) at 10 nM: 22%
Compound: Cc1cccc(-c2cn3ccc(N(C)CCF)nc3n2)c1 [Example 88, N-(2-Fluoroethyl)-N-methyl-2-(3-methylphenyl)imidazo[1,2-a]pyrimidin-7-amine]

% displacement of [3H]T808 (10 nM) at 10 nM: 20%
Compound: COc1ccc(-c2cn3ccc(N4CC(C)C4)nc3n2)cc1 [Example 89, 2-(4-Methoxyphenyl)-7-(3-methylazetidin-1-yl)imidazo[1,2-a]pyrimidine]

% displacement of [3H]T808 (10 nM) at 10 nM: 38%
Compound: CNc1ccn2cc(-c3ccc(N(C)C)cc3)nc2n1 [Example 90, 2-[4-(Dimethylamino)phenyl]-N-methylimidazo[1,2-a]pyrimidin-7-amine]
